{"source": "patent US9808477B2", "about": "(Macau University of Science and Technology, priority 2015, dated 2017)", "key": {"[1]": {"test_system": "A2780/T cells (PTX-resistant, ABCB1-overexpressing ovarian cancer cells)", "assay": "cells", "format": "cell-based, human", "settings": "Homo sapiens, A2780, 48 h, A2780/T, 48 h, SRB, drug alone (no nobiletin); read-out: IC50 ± SD", "description": "(§1) Sulphorhodamine B (SRB) assays were used for cell density determination, based on sensitive measure of total cellular protein, which perform similarly compared with other proliferation assays such as MTT assay. Briefly, cells were seeded into flat bottomed 96-well plates at an initial density of 7.5×10^3 per well before treatment. […] After removing the medium, cells were fixed in 10% trichloroacetic acid for 1 h at 4° C. and then washed with water five times. 0.4% SRB dissolved in 1% v/v acetic acid was added and incubated […] for staining. The cells were quickly washed with 1% acetic acid and left to dry overnight. The protein bound SRB was solubilized by adding 200 μl 10 mM Tris buffer per well and was measured at wavelengths 490 nm using a plate reader (Spectra MAX 250; Molecular Devices, Sunnyvale, Calif.). The optical density of SRB in each well is directly proportional to the cell number."}, "A2780/T cells": {"test_system": "A2780/T cells", "assay": "Colony formation assay", "format": "cell-based, human", "settings": "12 days", "source_text": "The A2780/T cells were trypsinized and plated in fresh culture medium at a density of 600 cells/9.6 cm^2 plate. Subsequently, the cells were fixed with 70% ethanol and stained with crystal violet (0.5% in ethanol). The plates were rinsed with phosphate buffered saline (PBS), and the colony numbers were counted using the software of Quantity one-Colony counting."}, "in vitro": {"assay": "in vitro", "format": "cell-based", "settings": "human", "description": "as §1"}, "A2780 cells": {"test_system": "A2780 cells", "assay": "Intracellular accumulation of doxorubicin and Flutax-2", "format": "cell-based, human", "settings": "parental A2780, nobiletin 4.5 μM", "description": "A2780 or A2780/T cells (5×10^6) were cultured on the cover glass (ISO LAB 20×20 mm). […] After treatment, cells were fixed in 4 wt % formaldehyde (Sigma-Aldrich). Nuclear DNA was stained with 1 μg/mL blue-fluorescent DAPI (1 mg/mL in H2O stock solution; Invitrogen D1306). One drop of fluorescent preservation solution (fluorsave reagent, CALBIOCHEM) was added before observation. Imaging was carried out for comparing the intracellular accumulation of DOX and flutax-2 with a Fluorescence Microscopy (Leica DM2500, Leica, Germany).\nCells were detached, re-suspended in 500 μl of PBS after washed twice with cold PBS, and analyzed by flow cytometry (BD FACS Aria, BD Biosciences, San Jose, Calif.). Excitation and emission wavelengths (nm) used for DOX and flutax-2 were as follows: 480 to 585; and 496 to 524."}, "Caco-2 cells": {"test_system": "Caco-2 cells", "settings": "nobiletin 20 μM; cited from earlier work"}}, "note": "pIC50: −log10 of the molar value.", "data": [{"smiles": "COc1ccc(-c2cc(=O)c3c(OC)c(OC)c(OC)c(OC)c3o2)cc1OC", "note": "[nobiletin]", "values": [{"measurement": "pIC50", "setting": "[1]", "result": 4.50}, {"measurement": "inhibition of colony formation, single agent", "setting": "A2780/T cells; 9 μM nobiletin alone or 0.94 μM PTX alone", "result": "no inhibition"}, {"measurement": "inhibition of colony formation, combination", "setting": "A2780/T cells; different concentrations of nobiletin with 0.94 μM PTX", "result": "Complete inhibition"}, {"measurement": "viability at 9 µM", "setting": "in vitro", "result": "> 90", "unit": "%"}, {"measurement": "DOX and Flutax-2 levels", "setting": "A2780 cells", "result": "no effect"}, {"measurement": "increase of uptake of [3H] vinblastine", "setting": "Caco-2 cells", "result": 3, "unit": "fold"}]}]}
